The subject of experiment [1] is HepG2-X cells inoculated tumor in nude mice. Kind of experiment: Survival of nude mice bearing HepG2-X inoculated tumor. Conditions: 0.1 mg/kg or 5.0 mg/kg, tail i.v. daily for 30 days. In kind it is in vivo.
Procedure: Suspend HepG2-X cells at exponential phase by treating with trypsin, count the number of cells, dilute to 1×10^7 cells/mL with sterile physiological saline, and then store in ice water. Take two female BALB/C mice of 4˜6 weeks age: i) one mouse in control group, inject 0.2 mL of above diluted cells to the armpit of right forelimb for each mouse, then only inject 0.5 mL of sterilized distilled water (without polypeptide drugs); ii) one mouse in experimental group with an administration dose of 10 mg/kg weight. Inject 0.2 mL of above diluted cells to the armpit of right forelimb for each mouse, after 20 days of injection, remove tumor tissue aseptically, cut into small tissue pieces, back inoculate to female BALB/C mice of 4˜6 weeks age for 18 mice in total. After tumor volume (V=L×W^2 0.5) reaches 100 mm^3, divide 18 mice into 3 groups each having 6 mice. The first group is control group, tail intravenous injecting with sterile PBS. […] Inject daily for 30 days, measure mice weight and tumor volume before each injection, and observe survival time of nude mice. After mice dies, perform analysis using Kaplan-Meier method to plot survival curve, Log-Rank is employed for statistical analysis.
Experiment [2] concerns HepG2.2.15 cells. Kind of experiment: HBeAg secretion ELISA in HepG2.2.15 cells. In kind it is cell-based. Conditions: 0.1, 1, 10, 100 μM. The protocol: 3. Analysis of function of D-TTK001 on HBeAg secreation in liver cancer cells utilizing enzyme-linked immunosorbent assay (ELISA)
(i) Biosafety cabinet was ultraviolet sterilized for 30 min and purged for 30 min; DMEM/F12 (1:1) culture medium containing 15% fetal bovine serum, HepAD38 cells (or HepG2.2.15 cells) were taken out, sterilized with 75% alcohol, and placed in the biosafety cabinet.
(ii) Under aseptic conditions, discard old culture medium, add 3 mL 1×PBS each time, wash twice, add 1 mL 0.25% trypsin, the cells were digested until cell rounding as observed in microscope. Add 5 mL culture medium, dispense cells, count with hemocytometer, and dilute with culture medium to a cell number of 1˜2×10^4 cells/mL.
(iii) Plating 96-well plate. Under aseptic conditions, discard old culture medium, add 3 mL 1×PBS each time, wash twice, add 1 mL 0.05% trypsin, the cells were digested until cell rounding as observed in microscope. Add 10 mL culture medium, dispense cells, count with hemocytometer, and dilute with DMEM/F12(1:1) culture medium, add 100 μL cell suspension into each well to a cell number of 1˜2×10^3 cells/mL. […]
(x) Stopping: add 50 μL of stop solution into each well, gently shake and mix, measure the result in ten minutes. Set wavelength of microplate reader to 450 nm, measure OD value for each well after zero setting with blank wells.
A general note: An ELISA detects its analyte on a solid surface through an enzyme-linked reagent.

Experiment [3] deals with T1, HBx protein (Hepatitis B virus genotype D subtype ayw, UniProt P03165).
T1 construct: made in house
Kind of experiment: In vitro binding to recombinantly expressed HBx protein, Biacore 3000. The protocol:
The recombinant plasmid (pET-30a-HBx) expressing HBx gene was self-constructed and preserved (Zhang H, et al. J Biomed Biotechnol, doi:10.1155/2009/289068), and then expression and purification of HBx were conducted according to above reference for the measurement of in vitro binding ability. Biacore 3000 biomolecular interaction analyzing unit (manufactured by GE Healthcare) was utilized to measure in vitro binding ability of polypeptide D-TTK001 to recombinantly expressed HBx protein. Polypeptide at different concentrations were injected for 180 seconds at a rate of 30 μL/min. In dissociation stage, HBS-EP buffer was injected for 900 seconds at a rate of 30 μL/min, then at a rate of 30 μL/min, 2 shots of 1 mM NaOH were injected for 20 seconds to regenerate the chip. All signals were calibrated using channel 1 as the reference channel. Binding measurement was conducted twice, respectively, wherein in the first measurement, HBX was injected into the channel of the coupled polypeptide and the blank channel at concentrations of 0 nM, 10 nM, 50 nM, 100 nM, 500 nM and 600 nM, respectively. Binding time was 180 seconds and dissociation time was 400 seconds. On chip surface, 1 mM NaOH was injected for 20 seconds at a rate of 30 μL/min for regeneration. In the second measurement, HBX was injected into the channel of coupled polypeptide and the blank channel at concentrations of 0 nM, 10 nM, 50 nM, 588 nM, 1 μM, and 2 μM, respectively. Binding time was 180 seconds and dissociation time was 400 seconds. On chip surface, 1 mM NaOH was injected for 20 seconds at a rate of 30 μL/min for regeneration. Results were kinetically analyzed by BIA Evaluation Software.
(In general: SPR reads the build-up and loss of mass on a sensor chip optically.)

Experiment [4] has as its system HepAD38 cells. Kind of experiment: MTT assay, proliferation of HepAD38 cells. In kind it is cell-based. As to conditions: 0.1, 1, 10, 100 μM, 48 hrs. The protocol: (1) Plating cells: suspend HepAD38 cells at exponential phase in RPMI1640 medium with 10% FBS, and plate 4000-5000 cells in a 96-well plate with 100 μL per well.
(2) Culturing cells: within 12 hrs. for adhesion of cultured cells, add different concentrations of synthesized D-TTK001 (or L-TTK001) polypeptides from Example 1 (0.1 μM, 1 μM, 10 μM and 100 μM) into 8 wells for each concentration, and incubate for 48 hrs. in common condition.
(3) Coloration: add 20 μL of MTT solution (5 mg/mL MTT in PBS buffer (pH7.4)) for each well.
(4) Incubate for 4 hrs., and carefully aspirate off the supernatant from the wells. Add 150 μL of DMSO into each well, shake for 10 min until the crystals were dissolved.
(5) Comparison: Read in an ELISA reader at 490 nm to measure the absorbance for each well. Results were calculated using Student's t-test.
In general terms: Tetrazolium assays rely on reduction of a dye to a coloured formazan, in cell work by metabolically active cells.

“And” between values parts separate entries of the source, which are not always exact repeats. Equal entries are not always repeated. Marks after values point to notes of the source that are not given here. Non-standard residues stand in square brackets, D forms with d. Residues, ends and D or L forms follow the SMILES beside them.

T1 sequence (P03165 whole entry): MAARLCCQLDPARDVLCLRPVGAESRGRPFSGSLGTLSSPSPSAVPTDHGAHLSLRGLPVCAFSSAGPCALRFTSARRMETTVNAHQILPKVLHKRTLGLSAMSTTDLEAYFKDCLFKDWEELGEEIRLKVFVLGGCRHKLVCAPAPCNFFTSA

The Kd is a measure of binding affinity in units of concentration. For the compound `CSCC[C@@H](NC(=O)[C@H](NC(=O)[C@@H](C)NC(=O)[C@@H](CO)NC(=O)CN)C(C)C)C(=O)N[C@H](Cc1ccccc1)C(=O)N[C@H](CO)C(=O)N[C@H](CO)C(=O)N[C@H](CCCCN)C(=O)N[C@H](CCC(=O)O)C(=O)N[C@H](CCCNC(=N)N)C(=O)NCC(=O)O` [D-TTK001, Gly-D-Ser-D-Ala-D-Val-D-Met-D-Phe-D-Ser-D-Ser-D-Lys-D-Glu-D-Arg-Gly] (H-G[dS][dA][dV][dM][dF][dS][dS][dK][dE][dR]G-OH; N-terminus and C-terminus assumed), the “survival of tumor bearing nude mice” value in experiment [1] is recorded as “clearly prolonged”. The “Minimum effective dose on HBeAg secretion levels” value in experiment [2] is 0.1 µM. Further, the Kd in experiment [3] (KD, Biacore 3000, first and second measurement) is 29.9 nM and 40.3 nM; in experiment [3] (in vitro binding to HBx, in vitro binding analysis results) it was 35 nM. Also, the “in vitro binding to HBx compared with L-polypeptide anti-HBxP1#” value in experiment [3] (comparison in words) is “lower than that of L-polypeptide anti-HBxP1#”. The “Minimum effective dose on growth and proliferation (MTT)” value in experiment [4] was 10 µM.
